Test results taken from patent US6426093B1, “Synergistic biocidal activity if ternary complexes of negatively-charged biocides (component A), transition metal ions (component B), and neutral chelators (component C)” (Yissum Research Development Company of the Hebrew …, priority 1998, dated 2002).

What was measured:
[1] = tested on: E. coli; assay: E. coli inactivation, survival by colony-forming ability; assay type: cell-based
Description: A sample of bacteria from the stock solution was diluted 100-fold in “reaction buffer” to a final concentration of 0.6 OD600 (4.8×10^6 cells/ml). Various agents were added to the bacteria following 15 minutes of preincubation at 37° C. Aliquots were removed at indicated time points into “termination buffer” to stop the reaction, and diluted by a factor of 50 to 10^6. Samples from each dilution were then plated on LB agar and grown overnight at 37° C. Each sample was plated at least five times. The colonies formed were then counted. Survival curves were evaluated from colony counts. Each experiment was repeated at least three times, and the mean values and standard error of triplicates were calculated.
In the experiments shown in FIG. 3, all the incubation mixtures contained glucose (0.5% w/v) and MgSO4 (1 mM) in HEPES buffer (10 mM, pH=7.4), and bacteria (4.8×10^6 cells/ml). The cells were exposed to the combination of PCP (0.5 mM) and Fe(OP)3 (5 μM)—designated open triangles; or with the addition of DMSO (5%)—designated closed triangles; or with SOD (50 U/ml)—designated open circles. The results presented in Table 1, which were obtained using the experimental conditions and methods described above in this example, show the effect of different concentrations of PCP and copper complex and their combinations on the inactivation of E. coli.

[2] = tested on: Bone marrow-derived mast cells (MC-9 line); assay: Killing of mast cells, survival by trypan blue method; assay type: cell-based, mice; conditions: 30 minutes
Description: Bone marrow-derived mast cells (MC-9 line) were obtained from the femora of mice (line C57BL/6). The cells were cultured at 37° C. in humidified atmosphere containing 5% of CO2 in RPMI-1640, supplemented with 10% fetal calf serum, 2 mM L-glutamine, 100 U/ml penicillin, 100 μg/ml streptomycin, and 50 μM β-2-mercaptoethanol. Mast cells were grown (14 days), washed and resuspended in reaction medium (only RPMI-1640) and treated for 30 minutes as indicated above. The survival was determined by the trypan blue method.

[Cu+2].c1cnc2c(c1)ccc1cccnc12.c1cnc2c(c1)ccc1cccnc12 [Cu^II (OP)2]
Survival (%) ([1]; Cu^II (OP)2 1 μM): 99.5%

[Cu+2].c1cnc2c(c1)ccc1cccnc12.c1cnc2c(c1)ccc1cccnc12.c1cnc2c(c1)ccc1cccnc12 [[Cu^II (OP)3]^2+complex, 1,10-phenanthroline-copper [Cu^II (OP)3]^2+complex]
activity relative to the analogous iron complex ([1]; in combination with PCP, bacterial inactivation): 100 times

Oc1c(Cl)c(Cl)c(Cl)c(Cl)c1Cl [PCP, Pentachlorophenol]
Survival (%) ([2]; PCP 0.5 mM): 90.5% | Survival (%) ([1]; PCP 0.4 mM): 95.6%

[Fe+2].c1cnc2c(c1)ccc1cccnc12.c1cnc2c(c1)ccc1cccnc12.c1cnc2c(c1)ccc1cccnc12 [Fe^II (OP)3]
Survival (%) ([2]; Fe^II (OP)3 100 (unit not given)): 95.4%
